The values that follow come from patent US4339580A, “Piperazinylalkoxyindanes and acid addition salts thereof” (Mitsubishi Chemical Industries, Limited, priority 1979, dated 1982).

SMILES strings stand for the structures. Where two headings read alike, the source gives them in different places.

Data set [1] relates to anti-fighting and anti-morphine actions. Put plainly: anti-anxiety activity (anti-fighting and anti-morphine actions as indications). The settings on record: PO, mice; versus chlorodiazepoxide and Compound 40. It counts as in vivo, ddy male mice. The procedure:
(§1) As controls, chlorodiazepoxide which is known as an anti-anxiety agent or minor tranquilizer and a known Compound 40 were used. The results are summarized in terms of 50% effective dose (ED50, mg/kg P.O.) in Table 1 below.
(§2) The animals used were ddy male mice (weighing 20 to 22 g) and they were tested for anti-fighting and anti-morphine actions as indications of anti-anxiety action. The anti-fighting activity of the test compound was evaluated by its suppressing or taming effect against fighting which was developed by applying an electric shock (28 V-DC, 4-5 mA, 3 min.) through a grid to the foot of the animal [R. E. Tedeschi, D. H. Tedeschi, A. Mucha, L. Cook, P. A. Mattis, E. J. Fellows, J. Pharmacol. exp. Therap., 125, 28 (1959)] The anti-morphine activity was evaluated according to the method of Takagi et al. by the suppressing effect against a tail reaction induced by administration of 20 mg/kg i.p. of morphine [H. Takagi, T. Kamioka, S. Kobayashi, Y. Suzuki and K. Tachikawa, Japanese J. of Pharmacology, 66, 107 (1970)].

The nature of data set [2]: muscle relaxant action, traction test. It counts as in vivo, ddy male mice. The settings on record: Mus musculus, po, read-out: ED50 traction test. The method, then: as §1, §2
Muscle relaxant action was evaluated by a traction test [S. Courvoisier, R. Ducrot, L. Julou, "Psychotropic Drugs" Ed. by S. Garattini, V. Ghetti, p. 313 (Elsevier) 1957].

The test system of data set [3] is tail reaction induced by morphine. Put plainly: anti-morphine activity (suppression of tail reaction induced by 20 mg/kg i.p. morphine). The data set is classed as in vivo, ddy male mice. The settings on record: Mus musculus, read-out: ED50 anti-morphine activity. The method, then:
as §1, §2

The nature of data set [4]: LD50 (Litchfield-Wilcoxon method). The settings on record: mouse, in vivo, PO, mice. The procedure:
as §2
The values for LD50 were calculated by the Litchfield-Wilcoxon method [J. T. Litchfield and F. Wilcoxon, J. Pharmacol. exp. Therap., 96, 99 (1949)].

Data set [5] has as its system fighting developed by electric shock. Nature of the data set: anti-fighting activity (suppressing or taming effect against electric foot shock induced fighting). The settings on record: Mus musculus, 0.05 h, read-out: ED50 taming effect. It counts as in vivo, ddy male mice. The procedure:
as §1, §2

Setting [6] is: PO, mice, morphine 20 mg/kg i.p.
[7] abbreviates: PO, mice, electric shock 28 V-DC, 4-5 mA, 3 min.

Usually ED50 stands for the midpoint of the dose-response relation. A word on the LD50: it is the dose at which mortality reaches 50%. As for `COc1cc2c(cc1OCCCN1CCN(c3ccc(F)cc3)CC1)CCC2` [Compound 30, 6-methoxy-5-{3-[4-(4-fluorophenyl)-1-piperazinyl]propoxy}indane], the “anti-anxiety activities compared with controls” value in data set [1] is “superior to those of chlorodiazepoxide and Compound 40”. The 50% effective dose (ED50) turned out to be 12.5 mg/kg in data set [2], 10.2 mg/kg in data set [3] (setting [6]) and 13 mg/kg in data set [5] (setting [7]). Besides, the LD50 in data set [4] was more than 1000 mg/kg.

In the case of `Clc1cccc(N2CCN(CCCOc3ccc4c(c3)CCC4)CC2)c1` [Compound 17], in data set [1], the “anti-anxiety activities compared with controls” value was “superior to those of chlorodiazepoxide and Compound 40”. Moreover, the ED50 in data set [2] turned out to be 45 mg/kg; in data set [3] (setting [6]), 15.5 mg/kg; in data set [5] (setting [7]), 12.6 mg/kg. The LD50 in data set [4] was more than 2000 mg/kg.

On to `Fc1ccc(N2CCN(CCCOc3cc4c(cc3F)CCC4)CC2)cc1` [Compound 19, 6-fluoro-5-{3-[4-(4-fluorophenyl)-1-piperazinyl]propoxy}indane], for which the “anti-anxiety activities compared with controls” value in data set [1] was “superior to those of chlorodiazepoxide and Compound 40”. The ED50 in data set [2] turned out to be 17.5 mg/kg; in data set [3] (setting [6]), 12.5 mg/kg; in data set [5] (setting [7]), 1 mg/kg. In data set [4], this compound gave an LD50 of more than 2000 mg/kg.

As for `Fc1ccc(N2CCN(CCCOc3ccc4c(c3)CCC4)CC2)cc1` [Compound 4, 5-{3-[4-(4-fluorophenyl)-1-piperazinyl]propoxy}indane], the “anti-anxiety activities compared with controls” value in data set [1] was “superior to those of chlorodiazepoxide and Compound 40”. Moreover, the ED50 was found to be 28 mg/kg in data set [2], 6 mg/kg in data set [3] (setting [6]) and 7.5 mg/kg in data set [5] (setting [7]). Also, the LD50 in data set [4] is more than 2000 mg/kg.

For the compound `Fc1cc2c(cc1OCCCN1CCN(c3ccccc3)CC1)CCC2` [Compound 18, 6-fluoro-5-[3-(4-phenyl-1-piperazinyl)propoxy]indane], the “anti-anxiety activities compared with controls” value in data set [1] was “superior to those of chlorodiazepoxide and Compound 40”. The ED50 was determined as 14.5 mg/kg in data set [2], 10.6 mg/kg in data set [3] (setting [6]) and 2.9 mg/kg in data set [5] (setting [7]). This compound had an LD50 in data set [4] of more than 2000 mg/kg.

Take `c1ccc(N2CCN(CCCOc3ccc4c(c3)CCC4)CC2)cc1` [Compound 1, 5-[3-(4-phenyl-1-piperazinyl)propoxy]indane]: the “anti-anxiety activities compared with controls” value in data set [1] is “superior to those of chlorodiazepoxide and Compound 40”. Moreover, the ED50 in data set [2] amounted to 14.1 mg/kg; in data set [3] (setting [6]) it was 6.3 mg/kg; in data set [5] (setting [7]), 6.6 mg/kg. For the same compound, the LD50 in data set [4] is more than 1500 mg/kg.

On to `CNC1=Nc2ccc(Cl)cc2C(c2ccccc2)=[N+]([O-])C1` [Chlorodiazepoxide, reference compound], for which the ED50 in data set [2] was 8.3 mg/kg; in data set [3] (po) it was 13 mg/kg; in data set [5] (po), 12.5 mg/kg. In data set [4], this compound came in with an LD50 of 720 mg/kg.

In the case of `Fc1cc2c(cc1OCCCN1CCN(c3cccc(Cl)c3)CC1)CCC2` [Compound 21, 6-fluoro-5-{3-[4-(3-chlorophenyl)-1-piperazinyl]propoxy}indane], the “anti-anxiety activities compared with controls” value in data set [1] was “superior to those of chlorodiazepoxide and Compound 40”. In addition, the ED50 in data set [2] worked out at 88 mg/kg; in data set [3] (setting [6]), 13.8 mg/kg; in data set [5] (setting [7]), 14.5 mg/kg. This compound also yielded an LD50 in data set [4] of 1500 to 2000 mg/kg.

Consider `Fc1ccc(N2CCN(CCCCOc3ccc4c(c3)CCC4)CC2)cc1` [Compound 5, 5-{4-[4-(4-fluorophenyl)-1-piperazinyl]butoxy}indane], for which, in data set [1], the “anti-anxiety activities compared with controls” value was “superior to those of chlorodiazepoxide and Compound 40”. Also, the results for the ED50 in data set [2], in data set [3] (setting [6]) and in data set [5] (setting [7]) were 21.5 mg/kg, 11.1 mg/kg and 12 mg/kg, respectively. In data set [4], this compound displayed an LD50 of more than 1100 mg/kg.

Consider `O=C(CCCN1CCN(c2ccc(F)cc2)CC1)c1ccc2c(c1)CCC2` [Compound 40, reference compound], for which the ED50 in data set [2] is 57 mg/kg; in data set [3] (setting [6]), 15.5 mg/kg; in data set [5] (setting [7]) it was 20 mg/kg. In data set [4], this compound had an LD50 of 1000 to 1500 mg/kg.

With `Cc1cc2c(cc1OCCCN1CCN(c3ccccc3)CC1)CCC2` [Compound 24, 6-methyl-5-[3-(4-phenyl-1-piperazinyl)propoxy]indane], the “anti-anxiety activities compared with controls” value in data set [1] is “superior to those of chlorodiazepoxide and Compound 40”. Further, the ED50 in data set [2] was 46 mg/kg; in data set [3] (setting [6]), 16 mg/kg; in data set [5] (setting [7]), 8.5 mg/kg. For the same compound, the LD50 in data set [4] is more than 2000 mg/kg.
